“Also recorded” adds a separate entry of the source. No end group written: not given here. *: point of attachment. Myristyl = CCCCCCCCCCCCCC*
Assays:
[1] = system: PD-L1-Me3 (PD-L1-PTM2); assay: High resolution digital pathology of PD-L1-Me3 (PDL1-PTM2) localisation; type: cell-based, human; conditions: for cytoplasmic expression of PDL1-PTM2 (PDL1-Me3): MDA-MB-231, vs vehicle control
Experimental: To examine the signature of CD8, CSV, EGFR, ABCB5, FOXQ1, commercial PD-L1-28-8, nuclear PD-L1, cytoplasmic PDL1 in MDA-MB-231 TNBC cells/TNBC brain cancer clone cells (untreated or treated with bicyclic inhibitors targeting nuclear PD-L1-PTM1). MDA-MB-231/MDA-MB-231-Br cells were permeabilised by incubating with 0.5% Triton X-100 for 15 min, blocked with 1% BSA in PBS and were probed with either CSV (Mouse host), CD8 (mouse host), EGFR (Rabbit host), ABCB5 (Goat Host), ALDH1A (Rabbit Host), NODAL (Goat Host), nuclear PDL1 (rabbit host), cytoplasmic PD-L1 (rabbit host) visualized with a donkey anti-rabbit AF 488, anti-mouse AF 568, donkey anti-goat 647. Cover slips were mounted on glass microscope slides with ProLong Glass Antifade reagent (Life Technologies). Protein targets were localised by digital pathology laser scanning microscopy. Single 0.5 μm sections were obtained using a ASI Digital pathology microscope using 100× oil immersion lens running ASI software. The final image was obtained by averaging four sequential images of the same section. Digital images were analyzed using automated ASI software (Applied Spectral Imaging, Carlsbad, CA) to determine the distribution and intensities automatically with automatic thresholding and background correction of the average nuclear fluorescence intensity (NFI), allowing for the specific targeting of expression of proteins of interest. Digital images were also analysed using ImageJ software (ImageJ, NIH, Bethesda, MD, USA) to determine the total cell fluorescence or cell surface only fluorescence for non-permeabilised cells. Digital images were analysed using ImageJ software (ImageJ, NIH, Bethesda, MD, USA) to determine either the Total Nuclear Fluorescent Intensity (TNFI), the Total Cytoplasmic Fluorescent Intensity (TCFI). ImageJ software with automatic thresholding and manual selection of regions of interest (ROIs) specific for cell nuclei was used to calculate the Pearson's co-efficient correlation (PCC) for each pair of antibodies. PCC values range from: −1=inverse of co-localisation, 0=no co-localisation, +1=perfect co-localisation. The Mann-Whitney nonparametric test (GraphPad Prism, GraphPad Software, San Diego, CA) was used to determine significant differences between datasets.
All breast cancer cell lines used were sourced from ATCC. MDA-MB-231 or MDB-MB-231-Br cell lines were maintained and cultured in DMEM (Invitrogen) supplemented with 10% FBS, 2 mM L-glutamine, and 1% PSN. MCF-7 cells were stimulated with 1.29 ng/mL phorbol 12-myristate 13-acetate (PMA) (Sigma-Aldrich) or 5 ng/ml recombinant TGF-β1 (R&D Systems) for 60 hours. For inhibitor studies, 2×10^5 cells were seeded in 2 mL complete media in 6 well plates and incubated overnight at 37° C./5% CO2. Cells were treated with PD-L1 bicyclic peptides targeting the nuclear axis PD-L1, HDAC2i or vehicle control. For qPCR analysis, at each time point, adherent cells were trypsinized, washed and cell pellets stored at −80° C. until further processing. For microscopy studies, 4×10^4 cells were seeded on coverslips and treated with inhibitors as described above. At each timepoint, coverslips were washed, fixed with 3.7% formaldehyde (Sigma) and stored at 4° C. until processing. […]
MDA-MB-231 were permeabilized and treated with either vehicle control or, DL-2 (current stock), or linear PDL1 (PDL1-L1). […] Significant differences are calculated as one-way ANOVA Kruskal-Wallis test comparison to vehicle control. […]

[2] = molecular target: T1, PDL2:IMPα1 complex (Homo sapiens, UniProt P52292); assay: Binding specificity assay (DUOLINK PDL2 and IMPα1); type: cell-based; conditions: MDA-MB-231, any concentration (10 μM to 0.00975 μM)
T1 construct: with concentrations ranging from 10 μM to 0.00975 μM; endogenous in cells; host or cells: MDA-MB-231
Experimental: MDA-MB-231 cells were treated with DL-2; with concentrations ranging from 10 μM to 0.00975 μM. Cover slips were mounted on glass microscope slides with Prolong nucleus glass Antifade reagent (Life Technologies). PDL2 and IMPα1 DUOLINK Digital images were analyzed using ImageJ software (ImageJ, NIH, Bethesda, MD, USA) and graphs represent the mean DOT Fluorescent Intensity in the nucleus or the cytoplasm compartments with significant differences calculated as per Kruskal-Wallis one-way ANOVA.

[3] = system: PDL2; assay: Immunofluorescence microscopy of nuclear PDL2; type: cell-based, human; conditions: MDA-MB-231 breast cancer cell line
Experimental: The cells were fixed and immunofluorescence microscopy was performed. Digital images were analysed using ImageJ software (ImageJ, NIH, Bethesda, MD, USA) to determine the mean nuclear fluorescent intensity (TNFI) in cells measured using ImageJ to select the nucleus minus background (n=>500 cells/sample).

[4] = system: 4T1 TNBC metastatic cancer cells; assay: 4T1 model of metastatic breast cancer in mice; type: in vivo, mouse
Experimental: 4T1 Gold standard immunotherapy resistant mouse model mice obtained from the ARC, Perth and mice were inoculated with 4T1 TNBC metastatic cancer cells. DL-2 is supplied lyophilised in glass vials and was reconstituted using sodium chloride injection BP (0.9% saline) to make a stock solution of 10 mg/mL using a needle/syringe, DL-2 was mixed by inversion. Animals were then injected by intraperitoneal injection at 10, 20 or 30 mg/kg daily and rested over the weekend. Mice were monitored over time for body weight and tumour volume.
4T1 Gold standard immunotherapy resistant mouse model mice obtained from the ARC, Perth and mice were inoculated with 4T1 TNBC metastatic cancer cells. DL-2 or DL-2-D is supplied lyophilised in glass vials was reconstituted using sodium chloride injection BP (0.9% saline) to make a stock solution of 10 mg/mL using a needle/syringe, DL-2 was mixed by inversion. Animals were then injected by intraperitoneal injection and mice were monitored over time for body weight and tumour volume for DL-2 at 20 mg/kg every second day with resting over the weekend in conjunction with αPD1 or isotype control (10 mg/kg).
DL-2-D was mixed by inversion. Animals were then injected by intraperitoneal injection and mice were monitored over time for body weight and tumour volume for DL-2-D at a concentration of 20 mg/kg every two days (identical regime to αPD1) in conjunction with αPD1 or isotype control (10 mg/kg).

LTFIFRLRKGRMMDVKK (Myristyl-LTFIFRLRKGRMMDVKK) [PDL1-L1, Myristyl- linear peptide, prototype]
cytoplasmic expression of PDL1-PTM2 (PDL1-Me3) ([1]; listed as linear PDL1 peptide): not able to induce any increased expression; also recorded: did not induce any increased expression

CCCCCCCCCCCCCC(=O)NC(C)C(=O)NC1CSCc2cc3cc(c2)CSC[C@H](NC(=O)[C@H](Cc2ccccc2)NC(=O)[C@H](C(C)CC)NC(=O)[C@H](Cc2ccccc2)NC(=O)[C@H]([C@@H](C)O)NC(=O)C(CC(C)C)NC1=O)C(=O)N[C@@H](CCCNC(C)=N)C(=O)N[C@@H](CC(C)C)C(=O)N[C@@H](CCCNC(=N)N)C(=O)N[C@@H](CCCCN)C(=O)NCC(=O)N[C@@H](CCCNC(=N)N)C(=O)NC(C(=O)N[C@@H](CCSC)C(=O)NC(CCSC)C(=O)N[C@@H](CC(=O)O)C(=O)NC(C(=O)N[C@@H](CCCCN)C(=O)NC(CCCCN)C(=O)O)C(C)C)CSC3 (mixture of isomers) [DL-2]
cytoplasmic expression of PDL1-PTM2 (PDL1-Me3) [1]: induce increased cytoplasmic expression | expression of cell surface PD-L1-Me3 ([1]; non-permeabilized MDA-MB-231 cells): significant upregulation | cytoplasmic/cell surface PD-L1-Me3 ([1]; permeabilized MDA-MB-231 cells): significantly upregulating | expression of nuclear PD-L1-Me3 ([1]; permeabilized MDA-MB-231 cells): abrogating | PDL2:IMPα1 complex (DUOLINK) [2]: no significant effect | nuclear expression of PDL2 [3]: no effect at all | body weight ([4]; DL-2 and anti-PD1 combination therapy): No change | primary tumour volume ([4]; DL-2 in combination with an anti-PD1 antibody, 10 day treatment period): significantly reduces | lung, liver or spleen weights ([4]; DL-2 in combination with anti-PD1): does not alter | body weight ([4]; DL-2 monotherapy): No change | lung, liver or spleen weights ([4]; DL-2 monotherapy): does not alter | primary tumour volume ([4]; DL-2 monotherapy 20 and 30 mg/kg i.p., eight day treatment period): reduces | tumour weight ([4]; DL-2 monotherapy 20 and 30 mg/kg, after 8 days): significantly reduced
